Measurements: patent US11498899B2, “Nitrone herbicides” (FMC Corporation, priority 2016, dated 2022)

How the values were obtained:
[1] = tested on: ducksalad (Heteranthera limosa); assay: Test B flooded paddy test, visual rating 0-100; settings: Flood, 250 g ai/ha, applied to paddy water, rated after 13 to 15 days
[2] = tested on: blackgrass (Alopecurus myosuroides); assay: Test A postemergence, visual injury rating 0-100; assay type: in vivo; settings: 0 to 100 scale
corn (Zea mays) = assay: Test A postemergence, visual injury rating 0-100; assay type: in vivo; settings: 0 to 100 scale
kochia (Kochia scoparia) [3] = assay: Test A postemergence, visual injury rating 0-100; assay type: in vivo; settings: 0 to 100 scale
[4] = tested on: wheat (Triticum aestivum); assay: Test A postemergence, visual injury rating 0-100; assay type: in vivo; settings: 0 to 100 scale
[5] = tested on: foxtail, giant (giant foxtail, Setaria faberii); assay: Test A postemergence, visual injury rating 0-100; assay type: in vivo; settings: 0 to 100 scale
[6] = tested on: barnyardgrass (Echinochloa crus-galli); assay: Test A postemergence, visual injury rating 0-100; assay type: in vivo; settings: 0 to 100 scale
[7] = tested on: pigweed (Amaranthus retroflexus); assay: Test A postemergence, visual injury rating 0-100; assay type: in vivo; settings: 0 to 100 scale
[8] = tested on: ragweed (common ragweed, Ambrosia elatior); assay: Test A postemergence, visual injury rating 0-100; assay type: in vivo; settings: 0 to 100 scale
[9] = tested on: ryegrass, Italian (Italian ryegrass, Lolium multiflorum); assay: Test A postemergence, visual injury rating 0-100; assay type: in vivo; settings: 0 to 100 scale
[10] = tested on: galium (catchweed bedstraw, Galium aparine); assay: Test A postemergence, visual injury rating 0-100; assay type: in vivo; settings: 0 to 100 scale
rice (Oryza sativa) = assay: Test B flooded paddy test, visual rating 0-100 (0 no effect, 100 complete control); settings: Flood, 250 g ai/ha, applied to paddy water, rated after 13 to 15 days
kochia (Kochia scoparia) [11] = assay: Test A preemergence, visual injury rating 0-100; assay type: in vivo
[12] = tested on: foxtail, giant (giant foxtail, Setaria faberii); assay: Test A preemergence, visual injury rating 0-100; assay type: in vivo
[13] = tested on: pigweed (Amaranthus retroflexus); assay: Test A preemergence, visual injury rating 0-100; assay type: in vivo
[14] = tested on: ragweed (common ragweed, Ambrosia elatior); assay: Test A preemergence, visual injury rating 0-100; assay type: in vivo
[15] = tested on: ryegrass, Italian (Italian ryegrass, Lolium multiflorum); assay: Test A preemergence, visual injury rating 0-100; assay type: in vivo
[16] = tested on: barnyardgrass (Echinochloa crus-galli); assay: Test B flooded paddy test, visual rating 0-100; settings: Flood, 250 g ai/ha, applied to paddy water, rated after 13 to 15 days
[17] = tested on: barnyardgrass (Echinochloa crus-galli); assay: Test A preemergence, visual injury rating 0-100 (0 no effect, 100 complete control); assay type: in vivo

Row | SMILES | Ducksalad plant response rating (0 to 100 scale) [1] | Blackgrass plant response rating ([2]; 125 g ai/ha) | Blackgrass plant response rating ([2]; 500 g ai/ha) | Corn plant response rating (corn (Zea mays); 125 g ai/ha) | Corn plant response rating (corn (Zea mays); 500 g ai/ha) | Kochia plant response rating (kochia (Kochia scoparia) [3]; 125 g ai/ha) | Kochia plant response rating (kochia (Kochia scoparia) [3]; 500 g ai/ha) | Wheat plant response rating ([4]; 125 g ai/ha) | Wheat plant response rating ([4]; 500 g ai/ha) | Foxtail, Giant plant response rating ([5]; 125 g ai/ha) | Foxtail, Giant plant response rating ([5]; 500 g ai/ha) | Barnyardgrass plant response rating ([6]; 125 g ai/ha) | Barnyardgrass plant response rating ([6]; 500 g ai/ha) | Pigweed plant response rating ([7]; 125 g ai/ha) | Pigweed plant response rating ([7]; 500 g ai/ha) | Ragweed plant response rating ([8]; 125 g ai/ha) | Ragweed plant response rating ([8]; 500 g ai/ha) | Ryegrass, Italian plant response rating ([9]; 125 g ai/ha) | Ryegrass, Italian plant response rating ([9]; 500 g ai/ha) | Galium plant response rating ([10]; 125 g ai/ha) | other results
1 | CC1=[N+]([O-])C(C(=O)Nc2cccc(F)c2F)C(c2cccc(Br)n2)C1 (racemic) [Compound 65] | 60 | 0 | 0 | 0 | 0 | 0 | 0 | 0 | 10 | 0 | 20 | 0 | 0 | 0 | 0 | 0 | 0 | 0 | 0 | 0 | Galium plant response rating ([10]; 500 g ai/ha): 30; Rice plant response rating (0 to 100 scale) (rice (Oryza sativa)): 10; Kochia plant response rating (0 to 100 scale) (kochia (Kochia scoparia) [11]; 125 g ai/ha): 0; Kochia plant response rating (0 to 100 scale) (kochia (Kochia scoparia) [11]; 500 g ai/ha): 0; Foxtail, Giant plant response rating (0 to 100 scale) ([12]; 125 g ai/ha): 0; Foxtail, Giant plant response rating (0 to 100 scale) ([12]; 500 g ai/ha): 90; Pigweed plant response rating (0 to 100 scale) ([13]; 125 g ai/ha): 0; Pigweed plant response rating (0 to 100 scale) ([13]; 500 g ai/ha): 0; Ragweed plant response rating (0 to 100 scale) ([14]; 125 g ai/ha): 0; Ragweed plant response rating (0 to 100 scale) ([14]; 500 g ai/ha): 0; Ryegrass, Italian plant response rating (0 to 100 scale) ([15]; 125 g ai/ha): 0; Ryegrass, Italian plant response rating (0 to 100 scale) ([15]; 500 g ai/ha): 100; Barnyardgrass plant response rating (0 to 100 scale) [16]: 15; Barnyardgrass plant response rating (0 to 100 scale) ([17]; 125 g ai/ha): 0; Barnyardgrass plant response rating (0 to 100 scale) ([17]; 500 g ai/ha): 90
2 | CC1=[N+]([O-])C(C(=O)Nc2cccc(F)c2F)C(c2ccc(Br)cn2)C1 (racemic) [Compound 66] | 75 | 0 | 0 | 0 | 0 | 0 | 0 | 0 | 0 | 0 | 0 | 0 | 0 | 0 | 0 | 0 | 0 | 0 | 0 | 0 | Galium plant response rating ([10]; 500 g ai/ha): 0; Rice plant response rating (0 to 100 scale) (rice (Oryza sativa)): 15; Kochia plant response rating (0 to 100 scale) (kochia (Kochia scoparia) [11]; 125 g ai/ha): 0; Kochia plant response rating (0 to 100 scale) (kochia (Kochia scoparia) [11]; 500 g ai/ha): 0; Foxtail, Giant plant response rating (0 to 100 scale) ([12]; 125 g ai/ha): 10; Foxtail, Giant plant response rating (0 to 100 scale) ([12]; 500 g ai/ha): 70; Pigweed plant response rating (0 to 100 scale) ([13]; 125 g ai/ha): 0; Pigweed plant response rating (0 to 100 scale) ([13]; 500 g ai/ha): 0; Ragweed plant response rating (0 to 100 scale) ([14]; 125 g ai/ha): 0; Ragweed plant response rating (0 to 100 scale) ([14]; 500 g ai/ha): 0; Ryegrass, Italian plant response rating (0 to 100 scale) ([15]; 125 g ai/ha): 0; Ryegrass, Italian plant response rating (0 to 100 scale) ([15]; 500 g ai/ha): 0; Barnyardgrass plant response rating (0 to 100 scale) [16]: 35; Barnyardgrass plant response rating (0 to 100 scale) ([17]; 125 g ai/ha): 0; Barnyardgrass plant response rating (0 to 100 scale) ([17]; 500 g ai/ha): 20
3 | COc1cccc(C2CC(C)=[N+]([O-])C2C(=O)Nc2cccc(F)c2F)n1 (racemic) [Compound 67] | 65 | 0 | 0 | 0 | 0 | 0 | 0 | 0 | 0 | 0 | 10 | 0 | 0 | 0 | 0 | 0 | 0 | 0 | 0 | 0 | Galium plant response rating ([10]; 500 g ai/ha): 0; Rice plant response rating (0 to 100 scale) (rice (Oryza sativa)): 15; Kochia plant response rating (0 to 100 scale) (kochia (Kochia scoparia) [11]; 125 g ai/ha): 0; Kochia plant response rating (0 to 100 scale) (kochia (Kochia scoparia) [11]; 500 g ai/ha): 0; Foxtail, Giant plant response rating (0 to 100 scale) ([12]; 125 g ai/ha): 0; Foxtail, Giant plant response rating (0 to 100 scale) ([12]; 500 g ai/ha): 60; Pigweed plant response rating (0 to 100 scale) ([13]; 125 g ai/ha): 0; Pigweed plant response rating (0 to 100 scale) ([13]; 500 g ai/ha): 0; Ragweed plant response rating (0 to 100 scale) ([14]; 125 g ai/ha): 0; Ragweed plant response rating (0 to 100 scale) ([14]; 500 g ai/ha): 0; Ryegrass, Italian plant response rating (0 to 100 scale) ([15]; 125 g ai/ha): 0; Ryegrass, Italian plant response rating (0 to 100 scale) ([15]; 500 g ai/ha): 0; Barnyardgrass plant response rating (0 to 100 scale) [16]: 15; Barnyardgrass plant response rating (0 to 100 scale) ([17]; 125 g ai/ha): 0; Barnyardgrass plant response rating (0 to 100 scale) ([17]; 500 g ai/ha): 70
4 | CC1=[N+]([O-])C(C(=O)Nc2cccc(F)c2F)C(c2ccc(F)cc2Oc2ncc(F)cn2)C1 (racemic) [Compound 68] | 0 | 70 | 70 | 20 | 90 | 0 | 30 | 30 | 80 | 0 | 90 | 0 | 40 | 0 | 30 | 0 | 0 | 20 | 90 | 30 | Galium plant response rating ([10]; 500 g ai/ha): 40; Rice plant response rating (0 to 100 scale) (rice (Oryza sativa)): 0; Kochia plant response rating (0 to 100 scale) (kochia (Kochia scoparia) [11]; 125 g ai/ha): 0; Kochia plant response rating (0 to 100 scale) (kochia (Kochia scoparia) [11]; 500 g ai/ha): 30; Foxtail, Giant plant response rating (0 to 100 scale) ([12]; 125 g ai/ha): 50; Foxtail, Giant plant response rating (0 to 100 scale) ([12]; 500 g ai/ha): 100; Pigweed plant response rating (0 to 100 scale) ([13]; 125 g ai/ha): 0; Pigweed plant response rating (0 to 100 scale) ([13]; 500 g ai/ha): 0; Ragweed plant response rating (0 to 100 scale) ([14]; 125 g ai/ha): 0; Ragweed plant response rating (0 to 100 scale) ([14]; 500 g ai/ha): 70; Ryegrass, Italian plant response rating (0 to 100 scale) ([15]; 125 g ai/ha): 20; Ryegrass, Italian plant response rating (0 to 100 scale) ([15]; 500 g ai/ha): 90; Barnyardgrass plant response rating (0 to 100 scale) [16]: 0; Barnyardgrass plant response rating (0 to 100 scale) ([17]; 125 g ai/ha): 20; Barnyardgrass plant response rating (0 to 100 scale) ([17]; 500 g ai/ha): 100
5 | CC1=[N+]([O-])C(C(=O)Nc2cccc(F)c2F)C(c2ccc(C)c(Br)c2)C1 (racemic) [Compound 71] | 0 | 40 | 70 | 70 | 90 | 10 | 50 | 20 | 70 | 40 | 60 | 80 | 90 | 20 | 10 | 0 | 50 | 60 | 80 | 30 | Galium plant response rating ([10]; 500 g ai/ha): 50; Rice plant response rating (0 to 100 scale) (rice (Oryza sativa)): 0; Kochia plant response rating (0 to 100 scale) (kochia (Kochia scoparia) [11]; 125 g ai/ha): 10; Kochia plant response rating (0 to 100 scale) (kochia (Kochia scoparia) [11]; 500 g ai/ha): 80; Foxtail, Giant plant response rating (0 to 100 scale) ([12]; 125 g ai/ha): 80; Foxtail, Giant plant response rating (0 to 100 scale) ([12]; 500 g ai/ha): 90; Pigweed plant response rating (0 to 100 scale) ([13]; 125 g ai/ha): 0; Pigweed plant response rating (0 to 100 scale) ([13]; 500 g ai/ha): 40; Ragweed plant response rating (0 to 100 scale) ([14]; 125 g ai/ha): 0; Ragweed plant response rating (0 to 100 scale) ([14]; 500 g ai/ha): 60; Ryegrass, Italian plant response rating (0 to 100 scale) ([15]; 125 g ai/ha): 30; Ryegrass, Italian plant response rating (0 to 100 scale) ([15]; 500 g ai/ha): 90; Barnyardgrass plant response rating (0 to 100 scale) [16]: 0; Barnyardgrass plant response rating (0 to 100 scale) ([17]; 125 g ai/ha): 90; Barnyardgrass plant response rating (0 to 100 scale) ([17]; 500 g ai/ha): 90
